Measured values as given in patent US9637469B2, “Pyridine derivative” (Teijin Pharma Limited, priority 2012, dated 2017).

Columns and labels:
human URAT1 = target: T1, human URAT1 (Homo sapiens, UniProt Q96S37); assay: Test for inhibition of uric acid transport using human URAT1-expressing cells;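 note: three stars up to 0.2 µM two stars 0.2-2 µM one star 2-20 µM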; assay type: cell-based; details: HEK 293 cells expressing human URAT1; 14C-labeled uric acid 25 μM; uptake 37° C. for 5 min
T1 construct: Full-length cDNA of human URAT1 (hURAT1)
T1 sequence (Q96S37 1-553): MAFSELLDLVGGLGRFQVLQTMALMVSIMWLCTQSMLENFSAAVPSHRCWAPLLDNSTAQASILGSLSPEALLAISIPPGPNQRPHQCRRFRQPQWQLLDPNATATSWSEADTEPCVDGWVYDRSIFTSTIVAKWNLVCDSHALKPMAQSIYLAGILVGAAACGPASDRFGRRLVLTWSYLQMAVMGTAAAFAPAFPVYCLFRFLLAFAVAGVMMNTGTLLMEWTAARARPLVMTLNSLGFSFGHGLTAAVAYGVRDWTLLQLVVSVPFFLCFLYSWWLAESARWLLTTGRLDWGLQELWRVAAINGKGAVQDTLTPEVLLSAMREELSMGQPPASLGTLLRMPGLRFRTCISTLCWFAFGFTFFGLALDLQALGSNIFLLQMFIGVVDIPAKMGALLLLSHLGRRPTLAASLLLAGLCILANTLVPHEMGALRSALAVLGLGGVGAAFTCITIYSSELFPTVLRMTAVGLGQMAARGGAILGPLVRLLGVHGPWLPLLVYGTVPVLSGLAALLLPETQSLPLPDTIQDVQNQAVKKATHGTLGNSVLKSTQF
How it was run: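 IC50 values reflect inhibition of ¹⁴C-uric acid uptake (25 μM final, 5 min, 37 °C) by compound. Cells were HEK293 stably expressing full-length human URAT1, preincubated in Na-gluconate-substituted HBSS. Radioactivity in lysates was expressed relative to DMSO control as 100%.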

Cebus apella = assay: Test for drug efficacy in Cebus apella (uric acid excretion rate); assay type: in vivo; details: 3 mg/kg to 30 mg/kg in 0.5% methylcellulose into stomach via the nasal cavity, up to 24 hours
Description: A test compound (3 mg/kg to 30 mg/kg) prepared by suspending in a 0.5% methylcellulose solution was administered to Cebus apella into stomach via the nasal cavity using a disposable catheter and a syringe barrel. Blood samples were taken before administration and 30 minutes, 1 hour, 2 hours, 4 hours, 8 hours, 12 hours, and 24 hours after administration; and urine samples were collected for the time intervals of immediately to 4 hours after administration, from 4 hours to 8 hours after administration, from 8 hours to 16 hours after administration, and from 16 hours to 24 hours after administration. Concentrations of uric acid and creatinine in the blood and urine samples collected were measured by an automatic analyzer (JEOL Ltd.). Uric acid and creatine were measured using L-type Wako UA.F (Wako Pure Chemicals Industries, Ltd.) and L-type Creatine F (Wako Pure Chemicals Industries, Ltd.) respectively. Uric acid clearance was calculated from the uric acid concentrations in blood and urine and, similarly, creatinine clearance was calculated from the creatinine concentrations.

Compound | Inhibitory Activity (IC50 of uric acid transport inhibition) (human URAT1) | uricosuric effect (uric acid excretion rate) (Cebus apella)
Cc1nc(-c2cncc(Cl)c2)n(Cc2cccc3ccsc23)c1C(=O)O [Compound A233, 1-(benzo[b]thiophen-7-ylmethyl)-2-(5-chloropyridin-3-yl)-4-methyl-1H-imidazole-5-carboxylic acid] | * * * | excellent uricosuric effect was confirmed
O=C(O)c1ccc(-c2cccnc2)n1Cc1cccc2ccccc12 [Compound B1, 1-(naphthalen-1-ylmethyl)-2-(pyridin-3-yl)-1H-pyrrole-5-carboxylic acid] | * * * | excellent uricosuric effect was confirmed
O=C(O)c1ccc(-c2cccnc2)n1Cc1cc(Cl)ccc1Cl [Compound B11, 1-(2,5-dichlorobenzyl)-2-(pyridin-3-yl)-1H-pyrrole-5-carboxylic acid] | * * * | excellent uricosuric effect was confirmed

Further lines, with some results ahead:

Inhibitory Activity (IC50 of uric acid transport inhibition) (human URAT1) | Compound | uricosuric effect (uric acid excretion rate) (Cebus apella)
* * * | Cc1cncc(-c2nc(C)c(C(=O)O)n2Cc2cc(Cl)ccc2Cl)c1 [Compound A156, 1-(2,5-dichlorobenzyl)-4-methyl-2-(5-methylpyridin-3-yl)-1H-imidazole-5-carboxylic acid] | excellent uricosuric effect was confirmed
* * * | O=C(O)c1cnc(-c2cncc(Cl)c2)n1Cc1cc(Cl)ccc1Cl [Compound A169, 2-(5-chloropyridin-3-yl)-1-(2,5-dichlorobenzyl)-1H-imidazole-5-carboxylic acid] | excellent uricosuric effect was confirmed
